Where “and” joins values, the source holds several entries; their conditions need not be identical. Equal values may be shown once.
These compounds were tested against Nonstructural protein 3 (Zika virus, UniProt A0A024AXB9) (assay: Functional biochemical assay to identify treatments for viral infectious disease that targets Zika NS2B-NS3 protease. Utilizing a direct enzyme activity measurement method, reading the fluorescence intensity is used to characterize the relative potency of inhibitors as IC50.).
Parameters: species or system PRVABC59

Sequence of Nonstructural protein 3 (A0A024AXB9 whole entry): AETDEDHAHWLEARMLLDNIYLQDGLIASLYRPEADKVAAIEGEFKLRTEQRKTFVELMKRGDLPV

Structure (SMILES)	IC50
NCCCOc1cc(-c2ccc(N)nc2)cc2c1COB2O	> 99.5 µM
NCc1cccc(CNC(=O)[C@H](NC(=O)OCc2ccccc2)c2ccc(OCc3ccccc3)cc2)c1	13.1 µM
CCn1ccnc(N2CC[C@H](c3ccn[nH]3)C2)c1=O	> 99.5 µM
O=C(Nc1cc2c(c(-c3c[nH]c(=O)c(F)c3)c1)CNC2)c1cc(F)cc2[nH]ncc12	0.025 µM and 0.015 µM
O=C(O)c1c(F)cc(F)cc1NS(=O)(=O)c1ccc(Oc2ccccc2Cl)cc1	> 99.5 µM
CNC(=O)[C@H](Nc1cccc(N)n1)c1cc(Cl)cc(CNC(=O)OC(C)(C)C)c1	> 99.5 µM
C[C@]1(OCCO)C(=O)Nc2cc(F)cc(C(=O)Nc3ccc4c(c3)CNC4)c21	1.14 µM
CC[C@H](Cc1nnn[nH]1)c1ccc(NC(=O)c2cc(Cl)cc(Cl)c2OC)cc1	> 99.5 µM
CCc1cnccc1-c1nc2c(C(=O)Nc3ccc4c(c3)CNC4)cc(Cl)cc2[nH]1	0.364 µM
Cc1cc([C@H](Nc2ccc3c(c2)CNC3)C(=O)NCC(F)F)cc(C(F)(F)F)c1	0.019 µM and < 0.012 µM
O=Cc1ccc(N2CCC(C(=O)Nc3cccc(Br)n3)CC2)cc1	24.7 µM
Cn1cc(CCOc2ccc([C@@H](NC(=O)OCc3ccccc3)C(=O)Nc3cccc(CN)c3)cc2)nn1	> 99.5 µM
C=C(C)c1cc(NC(=O)OCc2ccccc2)cc(C(=O)Nc2cccc(CN)c2)c1	14.8 µM
C[C@H]1CCN1C(=O)Cn1ccnc(N2CC[C@H](CO)C2)c1=O	> 99.5 µM
Cc1c(C(=O)Nc2cc(CN)ccc2F)cc(C2CC2)n1C	> 99.5 µM
CC(C)(C)c1ccc2[nH]cc(CN3CCC(c4cscn4)CC3)c2c1	> 99.5 µM
COc1cccc(-c2ccc([C@@H](NC(=O)OCc3ccccc3)C(=O)Nc3cccc(CN)c3)cc2)c1	7.03 µM and 8.01 µM
CNC(=O)[C@H](Nc1ccccn1)c1cc(Cl)cc(CN)c1	> 99.5 µM
C[C@H]1C[C@H]1c1cc(C(=O)Nc2cc(-c3cccnc3)ccn2)no1	> 25 µM
CCn1c(=O)c(N2C[C@H]3COC(C)(C)OC[C@H]3C2)nc2ccccc21	> 99.5 µM
O=C(Nc1ccc2c(c1)CNC2)c1cc(Cl)cc2ccncc12	0.079 µM and 0.07 µM
Cc1ccc(NC(=O)c2cc(C3CC3)n(C)c2C)cc1-c1cccnc1	> 25 µM
O=C(N[C@@H](C(=O)NCc1ccc(CN2CCCC2)cc1)c1ccc(OCc2ccccc2)cc1)OCc1ccccc1	> 99.5 µM
O=C(Nc1cc(Cl)cc(C(=O)NCCCc2nnn[nH]2)c1)OCc1ccccc1	> 99.5 µM
NCc1cccc(NC(=O)[C@H]2c3ccc(OCc4ccccc4)cc3CCN2C(=O)OCc2ccccc2)c1	17.3 µM
Cc1ccc(F)c(-c2ccc([C@@H](NC(=O)OCc3ccccc3)C(=O)Nc3cccc(CN)c3)cc2)c1	6.81 µM

Structure (SMILES)	IC50
O=C(O)c1nscc1NS(=O)(=O)c1ccc(Oc2ccccc2Cl)cc1	> 99.5 µM
O=S1(=O)CCN(CC#Cc2ccc3sncc3c2)CC1	> 99.5 µM
NCc1cccc(NC(=O)[C@H](NC(=O)OCc2ccccc2)c2cccc(OCCn3cccn3)c2)c1	> 99.5 µM
Cn1nc(C(F)(F)F)cc1C(=O)Nc1cc(-c2cccnc2)ccn1	> 25 µM
COc1cc(N[C@@H](C(=O)N2CCc3ccc(OC(F)(F)F)cc32)c2ccc(Cl)cc2)cc(OCCCC(=O)O)c1	20.4 µM
NCc1ccc2nc(-c3cc(Cl)cc(NC(=O)OCc4ccccc4)c3)c(CCCO)cc2c1	51.9 µM
NCc1cccc(NC(=O)[C@@H]2c3ccsc3CCN2C(=O)OCc2ccccc2)c1	> 99.5 µM
CNC(=O)[C@H](Nc1ccc2c(c1)CNC2)c1cc(Cl)cc2[nH]c(-c3ccccc3)nc12	0.029 µM and 0.013 µM
COc1ccc(S(=O)(=O)n2nc(OC(=O)c3ccccc3)cc2N)cc1	1.16 µM
Cc1cccc(CNc2ccc(Cl)cc2C(=O)Nc2cccc(CN)c2)n1	> 99.5 µM
N#C[C@H](Nc1ccc2c(c1)CNC2)c1cc(Cl)cc2[nH]ncc12	0.116 µM
CCCN(C)C(=O)Cn1ccnc(N2CC[C@H](CO)C2)c1=O	> 99.5 µM
Cc1c(C(=O)Nc2ccc3c(c2)CNCCO3)cc(C2CC2)n1C	> 99.5 µM
O=C(O)c1cc(F)c(F)cc1NS(=O)(=O)c1ccc(Oc2ccccc2Cl)cc1	31.9 µM
CCC[C@H](C)N1Cc2ccc(NC(=O)c3cc(Cl)cc4[nH]ncc34)cc2C1	3.2 µM
Cc1cccc(N2CCC(NS(=O)(=O)c3ccc(Cl)cc3C(=O)O)CC2)n1	> 99.5 µM
O=C1COc2c(cccc2C(=O)Nc2ccc3c(c2)CNC3)N1	1.22 µM
CS(=O)(=O)NC(=O)c1cc(CN)cc([C@@H]2C[C@H]2c2cc(Cl)cc(NC(=O)OCc3ccccc3)c2)c1	> 99.5 µM
O=C1CN(Cc2c[nH]c3ccccc23)CCN1c1cccnc1	> 99.5 µM
Cc1c(C(=O)Nc2ccc3c(c2)C(=O)N(C)C3)cc(C2CC2)n1C	> 25 µM
Cc1c(C(=O)Nc2cc(CCCN)ccn2)cc(C(C)C)n1C	> 99.5 µM
O=C(Nc1cc(Cl)cc(S(=O)(=O)Nc2cccc(-c3nn[nH]n3)c2)c1)OCc1ccccc1	> 99.5 µM
Cc1ccc(NC(=O)c2cc(Cl)ccc2Cl)c(C(=O)Nc2cccc(CN)c2)c1	53.9 µM
Cc1cc(C(=O)Nc2cccc(CN)c2)c2c(n1)CCCC2	> 99.5 µM
Cc1c(C(=O)Nc2cccc([C@@H](C)N)c2)cc(C2CC2)n1C	> 99.5 µM
NCc1cccc(NC(=O)c2cc(Cl)cc(OC3CC3)c2)c1	20.6 µM

Structure (SMILES)	IC50
O=C(Nc1cc2c(c(C3=CCS(=O)(=O)CC3)c1)CNC2)c1cc(F)cc2[nH]ncc12	0.038 µM and 0.03 µM and 0.026 µM
Cn1cc(C(=O)O)c(NS(=O)(=O)c2ccc(Oc3ccccc3Cl)cc2)n1	> 99.5 µM
O=C(Nc1cc(Cl)cc(C(=O)Nc2cc(Br)cc(-c3nnn[nH]3)c2)c1)OCc1ccccc1	7.24 µM
C[C@H](C(=O)O)c1cccc(NC(=O)c2cc(Cl)cc(NC(=O)OCc3ccccc3)c2)c1	> 99.5 µM
CCOCCNC(=O)[C@H](Nc1ccc2c(c1)CNC2)c1cc(Cl)cc2[nH]ncc12	0.06 µM and 0.042 µM
NCc1cccc(NC(=O)c2cc(Cl)cc(CN)c2)c1	< 2.49 µM
O=S(=O)(Nc1ccc(Cl)cc1CO)c1ccc(Oc2ccccc2Cl)cc1	> 99.5 µM
N#C[C@H](Nc1ccc(CC(=O)O)cn1)c1cc(Cl)cc(C2CC2)c1	> 99.5 µM
CCn1c(=O)c(N2CC[C@H](CO)C2)nc2cc(C(=O)O)ccc21	> 99.5 µM
CCn1c(=O)c(N2CC[C@H](N3CCN(C)CC3)C2)nc2ccccc21	> 99.5 µM
Cc1c(C(=O)Nc2cc(C(=O)N3CC4(CCO4)C3)ccn2)cc(C2CC2)n1C	> 25 µM
O=C(Nc1ccc2c(c1)CNC2)c1nc(Cl)nc2[nH]ccc12	> 25 µM
O=C(Nc1cc(Cl)cc(C(=O)Nc2ccc(C3CNC3)cc2)c1)OCc1ccccc1	5.99 µM
CC[C@H]1CN2CCC[C@H]2CN1c1nc2ccccc2n(CC)c1=O	> 99.5 µM
NCc1cn(CCNC(=O)c2cc(Cl)cc(NC(=O)OCc3ccccc3)c2)nn1	> 99.5 µM
O=C(Nc1cc(Br)c2c(c1)CNC2)c1cc(F)cc2[nH]ncc12	0.027 µM and 0.015 µM
O=C(Nc1cc(Cl)cc([C@H](Nc2cccc(-c3nn[nH]n3)c2)C(=O)NCc2ccccc2)c1)OCc1ccccc1	12.8 µM
CN1[C@@H]2CCC[C@H]1C[C@@H](NC(=O)C1CCN(c3ccc(C=O)cc3)CC1)C2	> 99.9 µM
NCCCc1ccnc(NC(=O)c2cc(C3CC3)[nH]n2)c1	> 25 µM
O=C(O)[C@@H]1CCCC[C@@H]1NS(=O)(=O)c1ccc(Oc2ccccc2Cl)cc1	> 99.5 µM
CCNCc1ccc(NC(=O)c2cc(Cl)cc3[nH]ncc23)cc1	11.5 µM
O=C(Nc1ccc2c(c1)CNC2)c1c(Br)ccc2[nH]ncc12	> 25 µM
CC[C@H](CO)NC(=O)Cn1ccnc(N2CC[C@H](CO)C2)c1=O	> 99.5 µM
CCn1cc(-c2ccccc2C(C)C)nc(N2CC[C@@H](CO)C2)c1=O	> 99.5 µM
COc1cc(COc2cccnc2F)nc(N2CCNCC2)n1	> 99.5 µM
CNC(=O)[C@H](Nc1ccc2c(c1)CNC2)c1cc(Cl)cc(C2CC2)c1	0.055 µM and 0.042 µM

Structure (SMILES)	IC50
CCCC[C@H](NC(C)=O)C(=O)N[C@H](C(=O)Nc1ccc(C(N)=O)cc1)c1ccc(OCc2ccccc2)cc1	> 99.5 µM
O=Cc1ccc(N2CCC(C(=O)N3CCC(CCN4CCCC4)CC3)CC2)cc1	> 99.9 µM
O=C(Nc1ccc2c(c1)C(=O)OC2)c1cccc(CC2CNC2)c1	> 25 µM
O=C(Nc1cc(Cl)cc(-c2ccc3[nH]c(C(=O)O)cc3c2)c1)OCc1ccccc1	7.58 µM
c1ccc2c(CN3CCC(c4nn[nH]n4)CC3)c[nH]c2c1	> 99.5 µM
Cn1ncc2c(C(=O)Nc3ccc4c(c3)CNC4)cc(Br)cc21	0.274 µM
NC(=O)c1cnccc1N1CCN(Cc2c[nH]c3ccccc23)CC1	> 99.5 µM
CC1=C(c2cc(NC(=O)c3cc(Cl)cc4[nH]ncc34)cc3c2CNC3)CCC1=O	0.137 µM
N#Cc1cc(Cl)cc(C(=O)Nc2cccc(-c3nnn[nH]3)c2)c1	> 99.5 µM
O=C(O)c1ccsc1NS(=O)(=O)c1ccc(Oc2ccccc2Cl)cc1	27.8 µM
N#Cc1cc2c(cc1NC(=O)c1cc(F)cc3[nH]ncc13)CNC2	16 nM (2×) and < 12 nM
Clc1ccc2[nH]ncc2c1[C@@H]1C[C@H]1c1ccc2c(c1)CNC2	22.4 µM
CC(C)N1CCc2nc(NC(=O)[C@H](NC(=O)OCc3ccccc3)c3ccc(OCc4ccccc4)cc3)sc2C1	> 99.5 µM
Cc1c(C(=O)Nc2cc3c(cn2)OCC3)cc(C2CC2)n1C	> 25 µM
O=c1[nH]c2cccc(N3CCN(Cc4c[nH]c5ccccc45)CC3)c2o1	> 99.5 µM
O=C(Nc1ccc2c(c1)CN[C@H]2[C@H](O)CO)c1cc(F)cc2[nH]ncc12	0.241 µM
COc1ccc(Cl)cc1[C@H](Nc1ccc2c(c1)CNC2)C(=O)NCC(F)F	0.061 µM and 0.053 µM
O=C(O)c1ccc2nc(Cc3c[nH]c4ccc(Cl)cc34)cn2c1	> 99.5 µM
CCc1cccc(-c2nc3c(C(=O)Nc4ccc5c(c4)CNC5)cc(F)cc3[nH]2)c1	53 nM (2×) and 32 nM
CN1CCC[C@H]1COc1ccc([C@@H](NC(=O)OCc2ccccc2)C(=O)Nc2cccc(CN)c2)cc1	> 99.5 µM
O=C(Nc1ccc2c(c1)CNC2)c1ccn[nH]1	62.1 µM
CNC(=O)c1cccc(C(=O)Nc2ccc3c(c2)CNC3)c1	0.87 µM
O=C(Nc1cc(Cl)cc(C(=O)Nc2cc(C(=O)O)ccn2)c1)OCc1ccccc1	> 99.5 µM
O=C(O)c1cc2c(cc1NS(=O)(=O)c1ccc(F)cc1)CCC2	> 99.5 µM
O=C(O)c1cc(Cl)ccc1NS(=O)(=O)c1ccc(-c2cn[nH]c2)cc1	> 99.5 µM

Reference: ChEMBL document CHEMBL5604062, “ASAP - ZIKV NS2B-NS3 protease fluorescence dose response” (2024)
